{"source": "paper PMC10692163", "about": "“Structure-based discovery of novel P-glycoprotein inhibitors targeting the nucleotide binding domains” (Scientific Reports, 2023)", "key": {"[1]": {"test_system": "P-gp nucleotide binding domain", "details": "Table S1, supplement reference list, cited from earlier work"}, "P-gp [2]": {"target": "T1, P-gp (Homo sapiens, UniProt P08183)", "T1 sequence (P08183 whole entry)": "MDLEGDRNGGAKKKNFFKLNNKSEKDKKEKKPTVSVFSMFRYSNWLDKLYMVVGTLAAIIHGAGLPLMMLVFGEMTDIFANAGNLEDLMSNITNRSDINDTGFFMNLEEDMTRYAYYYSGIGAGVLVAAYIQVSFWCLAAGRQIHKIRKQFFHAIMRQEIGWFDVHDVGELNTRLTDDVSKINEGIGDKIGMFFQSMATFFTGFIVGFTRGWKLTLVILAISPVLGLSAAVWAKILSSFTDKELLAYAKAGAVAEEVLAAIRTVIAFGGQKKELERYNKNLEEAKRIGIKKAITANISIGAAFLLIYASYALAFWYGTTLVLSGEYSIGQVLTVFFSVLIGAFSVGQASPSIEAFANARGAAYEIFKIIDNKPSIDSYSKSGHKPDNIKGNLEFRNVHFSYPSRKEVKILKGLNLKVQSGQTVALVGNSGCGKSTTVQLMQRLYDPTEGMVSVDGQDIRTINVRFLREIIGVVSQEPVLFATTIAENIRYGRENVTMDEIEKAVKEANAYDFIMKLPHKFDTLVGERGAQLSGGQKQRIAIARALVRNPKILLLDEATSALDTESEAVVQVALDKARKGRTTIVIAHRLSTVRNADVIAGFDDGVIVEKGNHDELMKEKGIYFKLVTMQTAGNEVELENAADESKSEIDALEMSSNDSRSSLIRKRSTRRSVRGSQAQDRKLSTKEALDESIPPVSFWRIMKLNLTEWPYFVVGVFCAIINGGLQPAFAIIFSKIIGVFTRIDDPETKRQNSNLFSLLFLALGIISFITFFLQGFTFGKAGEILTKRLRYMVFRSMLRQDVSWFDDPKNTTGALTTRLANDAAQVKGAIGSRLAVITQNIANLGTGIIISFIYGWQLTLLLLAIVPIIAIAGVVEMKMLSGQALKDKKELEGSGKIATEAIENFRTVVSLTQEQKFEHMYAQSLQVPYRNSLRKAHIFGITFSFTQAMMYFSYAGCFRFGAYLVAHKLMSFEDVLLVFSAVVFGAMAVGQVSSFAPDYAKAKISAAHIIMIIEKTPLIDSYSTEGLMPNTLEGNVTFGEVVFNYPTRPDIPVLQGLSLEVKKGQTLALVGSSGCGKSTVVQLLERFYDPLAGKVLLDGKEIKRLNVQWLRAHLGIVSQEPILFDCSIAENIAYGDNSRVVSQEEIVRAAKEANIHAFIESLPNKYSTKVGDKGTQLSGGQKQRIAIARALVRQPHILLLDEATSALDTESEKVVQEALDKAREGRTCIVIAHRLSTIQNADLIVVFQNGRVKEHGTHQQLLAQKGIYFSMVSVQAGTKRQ", "parameters": "method as in PMID 1356264, PMID 7911680, PMID 7772017, PMID 11121420", "details": "read-out: Binding affinity for ATP to P-gp; cited from earlier work"}, "P-gp [3]": {"target": "T1, P-gp", "test": "Inhibition of verapamil-stimulated sensitive ATPase activity (ATP consumption) in P-gp expressing Sf9 vesicles", "format": "biochemical", "parameters": "purchased GenoMembrane Co., Ltd (Kanagawa, Japan); host or cells: Sf9 insect cells infected with baculovirus; purified plasma membrane vesicles", "details": "for IC50: 50 µM verapamil", "description": "P-gp-mediated drug transport across membranes is driven by energy derived from hydrolysis of ATP. It is, therefore, possible to evaluate drug binding to P-gp by determining the ATPase activity. The method was modified from the procedure reported by Sarkadi et al.[64]. Briefly, solutions of test compounds and positive and negative controls in a reaction medium containing 50 mM MOPS-Tris (pH 7.4), 0.1 mM EGTA, 2 mM DDT, 50 mM KCl, 5 mM sodium azide, and 1 mM ouabain were incubated on ice in a 96 well plate. Then P-gp containing membrane vesicles to a final concentration of 0.5 mg/ml were added on ice to each well. […] Then, the ATPase reaction was started by the addition of MgATP to a final concentration of 5 mM and the plates with vesicles were incubated at 37 ^∘ C for 60 min. The reaction was stopped by the addition of a 10% SDS solution and the amount of inorganic phosphate was determined immediately by addition of a coloring solution containing final concentrations of 8 mM ascorbic acid, 10 mM zinc acetate, and 7 mM ammonium molybdate. The wells were then incubated at 37 ^∘ C for 20 min and the absorbance was scanned at wave lengths from 630 to 850 nm, and 740 nm was used for calculation of ATP consumption based on a phosphate standard curve freshly made with each experiment. To estimate sensitive ATPase activity mediated by P-gp, all experiments were conducted with no compound controls (2% DMSO), positive controls and background controls in which no stop solution was added, all in the absence and presence of 500 µM vanadate. The absorbance measured for a test condition was converted to nmol inorganic phosphate and normalized for reaction time and protein amount. The sensitive ATPase activity was then obtained by subtracting the inorganic phosphate generated in the presence of 500 µM vanadate at otherwise similar conditions.\n(§1) Calcein fluorescence in arbitrary unit (a.u) corrected for background signal, which was the signal obtained from the cells incubated with HBSS ^7.4+ or HBSS ^5.5+ without calcein-AM, was plotted as a function of time and slopes (denoted m below) were obtained by linear regression. The increase in fluorescent calcein is a surrogate marker of increased P-gp inhibition. The slope from curves of fluorescence as a function of time for a compound ( mcompound ) was normalized to the slope of fluorescence in cells exposed to HBSS ^7.4+ or HBSS ^5.5+ only (referred as control, mcontrol )."}, "P-gp [4]": {"target": "T1, P-gp", "test": "Calcein-AM efflux assay in MDCKII MDR1 cells", "format": "cell-based", "parameters": "host or cells: MDCKII MDR1 cells", "description": "Calcein-AM efflux experiments were performed on MDCKII MDR1 cells, which were seeded on black 96-well microplates. Before the experiments, media was removed from the wells and 50 µL pre-warmed HBSS ^7.4+ was added. After a 15 min incubation period, the HBSS ^7.4+ buffer was removed and 50 µL of solution containing P-gp inhibitor or test compound dissolved in HBSS ^7.4+ or HBSS ^5.5+ were added to the individual wells, followed by addition of 50 µL 10.0 µM calcein-AM giving a final calcein-AM concentration of 5.0 µM. Calcein-AM diffuses into the cell where it is either hydrolysed to a membrane-impermeable fluorescent calcein dye or extruded from the cell by P-gp[63]. Inhibiting P-gp increases the amount of calcein in the cell and a higher amount is hydrolysed to calcein, thus the fluorescence measured is increased. The highest concentration of each compound was added to a cell-containing well in the absence of calcein-AM to investigate if compounds were fluorescent themselves.\nas §1"}, "[5]": {"details": "Sf9 vesicles expressing human P-gp, 5 mM MgATP, 60 min, 37 °C, read-out: ATP assay IC50"}}, "note": "Where two headings read alike, the source gives them in different places.", "data": [{"compound": "O=c1c(O)c(-c2ccccc2)oc2ccccc12", "note": "[3OH-flavone]", "values": [{"measurement": "Class (known P-gp NBD inhibitor)", "setting": "[1]; ref [4]", "value": "Marginal"}]}, {"compound": "C=C(CO)C1Cc2c(ccc3c(=O)c4c(oc23)COc2cc(OC)c(OC)cc2-4)O1", "note": "(centres unmarked) [6a,12a,-Dehydroamorphigenin]", "values": [{"measurement": "Class (known P-gp NBD inhibitor)", "setting": "[1]; ref [1]", "value": "Marginal"}]}, {"compound": "C=C(CO)[C@H]1Cc2c(ccc3c2O[C@@H]2COc4cc(OC)c(OC)cc4[C@]2(O)C3=O)O1", "note": "[12a-Hydroxyamorphigenin]", "values": [{"measurement": "Class (known P-gp NBD inhibitor)", "setting": "[1]; ref [1]", "value": "Marginal"}]}, {"compound": "Nc1ncnc2c1ncn2[C@@H]1O[C@H](COP(=O)(O)OP(=O)(O)OP(=O)(O)O)[C@@H](O)[C@H]1O", "note": "[ATP]", "values": [{"measurement": "Kd", "setting": "P-gp [2]", "value": "300 to 800", "unit": "µM"}]}, {"compound": "C=C(CO)[C@H]1Cc2c(ccc3c2O[C@@H]2COc4cc(OC)c(OC)cc4[C@@H]2C3=O)O1", "note": "[Amorphigenin]", "values": [{"measurement": "Class (known P-gp NBD inhibitor)", "setting": "[1]; ref [1]", "value": "Marginal"}]}, {"compound": "O=c1cc(-c2ccc(O)cc2)oc2cc(O)cc(O)c12", "note": "[Apigenin]", "values": [{"measurement": "Class (known P-gp NBD inhibitor)", "setting": "[1]; ref [4]", "value": "Marginal"}]}, {"compound": "COc1ccc(-c2coc3cc(O)cc(O)c3c2=O)cc1", "note": "[Biochanin A]", "values": [{"measurement": "Class (known P-gp NBD inhibitor)", "setting": "[1]; ref [2]", "value": "Active"}]}, {"compound": "O=c1cc(-c2ccccc2)oc2cc(O)cc(O)c12", "note": "[Chrysin]", "values": [{"measurement": "Class (known P-gp NBD inhibitor)", "setting": "[1]; ref [1]", "value": "Marginal"}]}, {"compound": "Oc1cc(O)c2c(c1)O[C@H](c1ccc(O)c(O)c1)[C@H](O)C2", "note": "[Epicatechin]", "values": [{"measurement": "Class (known P-gp NBD inhibitor)", "setting": "[1]; ref [5]", "value": "Marginal"}]}, {"compound": "Oc1cc(O)c2c(c1)O[C@H](c1cc(O)c(O)c(O)c1)[C@H](O)C2", "note": "[Epigallocatechin]", "values": [{"measurement": "Class (known P-gp NBD inhibitor)", "setting": "[1]; ref [1]", "value": "Marginal"}]}, {"compound": "O=C(O[C@@H]1Cc2c(O)cc(O)cc2O[C@@H]1c1cc(O)c(O)c(O)c1)c1cc(O)c(O)c(O)c1", "note": "[Epigallocatechingallate (EGCG), Epigallocatechingallate]", "values": [{"measurement": "Class (known P-gp NBD inhibitor)", "setting": "[1]; ref [3]", "value": "Active"}]}, {"compound": "O=c1c(O)c(-c2ccccc2)oc2cc(O)cc(O)c12", "note": "[Galangin]", "values": [{"measurement": "Class (known P-gp NBD inhibitor)", "setting": "[1]; ref [4]", "value": "Marginal"}]}, {"compound": "C=C(C)[C@H]1Cc2c(ccc3c2O[C@@H]2COc4cc(OC)c(OC)cc4[C@@H]2C3=O)O1", "note": "[Rotenone]", "values": [{"measurement": "Class (known P-gp NBD inhibitor)", "setting": "[1]; ref [1]", "value": "Active"}]}, {"compound": "COc1cc(C2Oc3cc([C@H]4Oc5cc(O)cc(O)c5C(=O)[C@@H]4O)ccc3OC2CO)ccc1O", "note": "(some centres unmarked) [Silybin]", "values": [{"measurement": "Class (known P-gp NBD inhibitor)", "setting": "[1]; ref [4]", "value": "Marginal"}]}, {"compound": "COc1cc2c(cc1OC)CN(CCc1ccc(NC(=O)c3cc(OC)c(OC)cc3NC(=O)c3cnc4ccccc4c3)cc1)CC2", "note": "[Tariquidar]", "values": [{"measurement": "Effect on verapamil-stimulated sensitive P-gp ATPase activity", "setting": "P-gp [3]; 1 µM Tariquidar plus 50 µM verapamil", "value": "reduced to the background buffer level"}, {"measurement": "IC50", "setting": "P-gp [3]; [5]", "value": 0.11, "unit": "µM"}]}, {"compound": "Cn1cnnc1CC(NS(=O)(=O)N1CCC(C(C)(C)C)CC1)C(=O)O", "note": "(centres unmarked) [compound 10]", "values": [{"measurement": "IC50", "setting": "P-gp [3]; [5]", "value": 332, "unit": "µM"}, {"measurement": "IC50", "setting": "P-gp [3]; log of IC50 in µM, Sf9 vesicles, read-out: ATP assay Log IC50 (converted)", "value": 331, "unit": "µM"}, {"measurement": "IC50", "setting": "P-gp [4]; MDCKII MDR1 cells, extracellular pH 5.5, 5.0 µM calcein-AM, read-out: Calcein-AM, pH 5.5 IC50", "value": 127, "unit": "µM"}, {"measurement": "IC50", "setting": "P-gp [4]; MDCKII MDR1 cells, extracellular pH 7.4, 5.0 µM calcein-AM, read-out: Calcein-AM, pH 7.4 IC50", "value": 299, "unit": "µM"}, {"measurement": "Ability to inhibit calcein-AM efflux", "setting": "P-gp [4]; at both pH 5.5 and pH 7.4", "value": "ability to inhibit calcein-AM efflux at both pH 5.5 and pH 7.4"}, {"measurement": "Calcein-AM, pH 5.5 LogIC50", "setting": "P-gp [4]; log of IC50 in µM, extracellular pH 5.5", "value": 2.10}, {"measurement": "IC50", "setting": "P-gp [4]; log of IC50 in µM, extracellular pH 7.4, read-out: Calcein-AM, pH 7.4 Log IC50 (converted)", "value": 302, "unit": "µM"}]}, {"compound": "COc1ccc(-c2oc3cc(O)cc(O)c3c(=O)c2O)cc1", "note": "[kaempferide]", "values": [{"measurement": "Class (known P-gp NBD inhibitor)", "setting": "[1]; ref [4]", "value": "Marginal"}]}, {"compound": "O=c1c(O)c(-c2ccc(O)cc2)oc2cc(O)cc(O)c12", "note": "[kaempferol]", "values": [{"measurement": "Class (known P-gp NBD inhibitor)", "setting": "[1]; ref [4]", "value": "Marginal"}]}, {"compound": "Mitragynine", "values": [{"measurement": "Class (known P-gp NBD inhibitor)", "setting": "[1]; ref [6]", "value": "Marginal"}]}]}
